Measured values reported in ChEMBL document CHEMBL1125524, “Adenosine A1 antagonists. 2. Structure-activity relationships on diuretic activities and protective effects against acute renal failure” (J Med Chem, 1992).

Key:
Rattus norvegicus [1] = test: Ratio of urinary excretion value (Na+ concentration) in treated rats to that in control rats, at a peroral dose of 0.4 mg/Kg; format: functional, Urine
Rattus norvegicus [2] = test: Serum creatinine concentration measured after intraperitoneal administration of 1 mg/kg of compound to rats(vehicle 3.91+/-0.37); format: functional
Rattus norvegicus [3] = test: Effect on urinary excretion potassium and sodium after oral administration of 1.6 mg/kg to rats(potassium and sodium excretion in control rat is 0.183+/-0.012); format: functional, Urine
Rattus norvegicus [4] = test: Urea nitrogen concentration measured after intraperitoneal administration of 1 mg/kg of compound to rats(vehicle 128.9+/-9.3); format: functional
Rattus norvegicus [5] = test: Oral diuretic activity was measured after oral administration of 1.6 mg/kg to rats(control volume is 0.82+/-0.05); format: functional, Urine
Rattus norvegicus [6] = test: Ratio of urinary excretion value (urinary volume) in treated rats to that in control rats, at a peroral dose of 0.4 mg/Kg; format: functional, Urine
Rattus norvegicus [7] = test: Percent inhibition of serum creatinine by the compound given as ratio of Cr value in treated to vehicle treated ones after intraperitoneal administration of 1 mg/kg of compound to rats(vehicle 2.89+/-0.42); format: functional; conditions: ip
Rattus norvegicus [8] = test: Ratio of urinary excretion value (Na+ concentration) in treated rats to that in control rats, at a peroral dose of 6.25 mg/Kg; format: functional, Urine
Rattus norvegicus [9] = test: Oral diuretic activity was measured after oral administration of 0.4 mg/kg to rats(control volume is 0.99+/-0.07); format: functional, Urine
Rattus norvegicus [10] = test: Ratio of urinary excretion value (Na+ concentration) in treated rats to that in control rats, at a peroral dose of 1.6 mg/Kg; format: functional, Urine
Rattus norvegicus [11] = test: Urea nitrogen concentration measured after intraperitoneal administration of 1 mg/kg of compound to rats(vehicle 107.7+/-15.2); format: functional
Rattus norvegicus [12] = test: Effect on urinary excretion potassium and sodium after oral administration of 0.4 mg/kg to rats(potassium and sodium excretion in control rat is 0.191+/-0.021); format: functional, Urine
Rattus norvegicus [13] = test: Ratio of urinary excretion value (urinary volume) in treated rats to that in control rats, at a peroral dose of 6.25 mg/Kg; format: functional, Urine
Rattus norvegicus [14] = test: Ratio of sodium ion/potassium ion concentration in treated rats to that in control rats, at a peroral dose of 1.6 mg/Kg; format: functional
Adenosine A2 receptor = Adenosine A2 receptor (Rattus norvegicus, UniProt P29276+P30543)
Rattus norvegicus [15] = test: Serum creatinine concentration measured after intraperitoneal administration of 1 mg/kg of compound to rats(vehicle 2.89+/-0.42); format: functional
Rattus norvegicus [16] = test: Percent inhibition of serum creatinine by the compound given as ratio of Cr value in treated to vehicle treated ones after intraperitoneal administration of 1 mg/kg of compound to rats(vehicle 3.91+/-0.37); format: functional; conditions: ip
Rattus norvegicus [17] = test: Ratio of urinary excretion value (urinary volume) in treated rats to that in control rats, at a peroral dose of 1.6 mg/Kg; format: functional, Urine
Rattus norvegicus [18] = test: Ratio of sodium ion/potassium ion concentration in treated rats to that in control rats, at a peroral dose of 0.4 mg/Kg; format: functional
Rattus norvegicus [19] = test: Percent inhibition of Urea nitrogen by the compound given as ratio of UN value in treated to vehicle treated ones after intraperitoneal administration of 1 mg/kg of compound to rats(vehicle 128.9+/-9.3); format: functional; conditions: ip
Rattus norvegicus [20] = test: Percent inhibition of Urea nitrogen by the compound given as ratio of UN value in treated to vehicle treated ones after intraperitoneal administration of 1 mg/kg of compound to rats(vehicle 107.7+/-15.2); format: functional; conditions: ip
Rattus norvegicus [21] = test: Ratio of urinary excretion value (Na+ concentration) in treated rats to that in control rats, at a peroral dose of 0.01 mg/Kg; format: functional, Urine
Rattus norvegicus [22] = test: Effect on urinary excretion potassium and sodium after oral administration of 1.6 mg/kg to rats(potassium and sodium excretion in control rat is 0.173+/-0.015); format: functional, Urine
Rattus norvegicus [23] = test: Serum creatinine concentration measured after intraperitoneal administration of 0.01 mg/kg of compound to rats(vehicle 4.09+/-0.39); format: functional
Rattus norvegicus [24] = test: Ratio of urinary excretion value (urinary volume) in treated rats to that in control rats, at a peroral dose of 0.1 mg/Kg; format: functional, Urine
Rattus norvegicus [25] = test: Percent inhibition of serum creatinine by the compound given as ratio of Cr value in treated to vehicle treated ones after intraperitoneal administration of 0.01 mg/kg of compound to rats(vehicle 4.09+/-0.39); format: functional; conditions: ip
Rattus norvegicus [26] = test: Urea nitrogen concentration measured after intraperitoneal administration of 0.01 mg/kg of compound to rats(vehicle 143.9+/-12.2); format: functional
Rattus norvegicus [27] = test: Oral diuretic activity was measured after oral administration of 0.01 mg/kg to rats(control volume is 1.15+/-0.17); format: functional, Urine
Rattus norvegicus [28] = test: Oral diuretic activity was measured after oral administration of 0.1 mg/kg to rats(control volume is 0.75+/-0.12); format: functional, Urine
Rattus norvegicus [29] = test: Urea nitrogen concentration measured after intraperitoneal administration of 0.1 mg/kg of compound to rats(vehicle 165.3+/-4); format: functional
Rattus norvegicus [30] = test: Percent inhibition of serum creatinine by the compound given as ratio of Cr value in treated to vehicle treated ones after intraperitoneal administration of 0.1 mg/kg of compound to rats(vehicle 5.08+/-0.14); format: functional; conditions: ip
Rattus norvegicus [31] = test: Ratio of sodium ion/potassium ion concentration in treated rats to that in control rats, at a peroral dose of 0.1 mg/Kg; format: functional
Rattus norvegicus [32] = test: Serum creatinine concentration measured after intraperitoneal administration of 1 mg/kg of compound to rats(vehicle 4.27+/-0.24); format: functional
Rattus norvegicus [33] = test: Ratio of sodium ion/potassium ion concentration in treated rats to that in control rats, at a peroral dose of 0.01 mg/Kg; format: functional
Rattus norvegicus [34] = test: Percent inhibition of Urea nitrogen by the compound given as ratio of UN value in treated to vehicle treated ones after intraperitoneal administration of 0.1 mg/kg of compound to rats(vehicle 165.3+/-4); format: functional; conditions: ip
Rattus norvegicus [35] = test: Urea nitrogen concentration measured after intraperitoneal administration of 1 mg/kg of compound to rats(vehicle 171.5+/-7.7); format: functional
Rattus norvegicus [36] = test: Percent inhibition of Urea nitrogen by the compound given as ratio of UN value in treated to vehicle treated ones after intraperitoneal administration of 0.01 mg/kg of compound to rats(vehicle 143.9+/-12.2); format: functional; conditions: ip
Rattus norvegicus [37] = test: Oral diuretic activity was measured after oral administration of 1.6 mg/kg to rats(control volume is 0.93+/-0.03); format: functional, Urine
Adenosine receptor A1 = target: T1, Adenosine receptor A1 (Cavia porcellus, UniProt P47745)
T1 sequence (P47745 whole entry): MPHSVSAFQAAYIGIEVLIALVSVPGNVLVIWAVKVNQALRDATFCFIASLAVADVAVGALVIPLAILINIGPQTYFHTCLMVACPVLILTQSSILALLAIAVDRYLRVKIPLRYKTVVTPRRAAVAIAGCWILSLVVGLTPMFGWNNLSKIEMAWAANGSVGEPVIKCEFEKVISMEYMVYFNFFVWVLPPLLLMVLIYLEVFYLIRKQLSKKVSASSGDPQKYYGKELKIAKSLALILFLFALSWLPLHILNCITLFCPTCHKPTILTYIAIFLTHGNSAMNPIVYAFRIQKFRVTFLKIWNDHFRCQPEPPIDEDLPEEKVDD
Description: Binding affinity against adenosine A1 receptor in guinea pig forebrain membranes using N6-[3H]cyclohexyladenosine as radioligand

Rattus norvegicus [38] = test: Percent inhibition of Urea nitrogen by the compound given as ratio of UN value in treated to vehicle treated ones after intraperitoneal administration of 1 mg/kg of compound to rats(vehicle 171.5+/-7.7); format: functional; conditions: ip
Rattus norvegicus [39] = test: Serum creatinine concentration measured after intraperitoneal administration of 0.1 mg/kg of compound to rats(vehicle 5.08+/-0.14); format: functional
Rattus norvegicus [40] = test: Percent inhibition of serum creatinine by the compound given as ratio of Cr value in treated to vehicle treated ones after intraperitoneal administration of 1 mg/kg of compound to rats(vehicle 4.27+/-0.24); format: functional; conditions: ip
Rattus norvegicus [41] = test: Ratio of urinary excretion value (urinary volume) in treated rats to that in control rats, at a peroral dose of 0.01 mg/Kg; format: functional, Urine
Rattus norvegicus [42] = test: Effect on urinary excretion potassium and sodium after oral administration of 0.01 mg/kg to rats(potassium and sodium excretion in control rat is 0.191+/-0.020); format: functional, Urine
Rattus norvegicus [43] = test: Ratio of urinary excretion value (Na+ concentration) in treated rats to that in control rats, at a peroral dose of 0.1 mg/Kg; format: functional, Urine
Rattus norvegicus [44] = test: Effect on urinary excretion potassium and sodium after oral administration of 0.1 mg/kg to rats(potassium and sodium excretion in control rat is 0.179+/-0.038); format: functional, Urine

In the case of CCCn1c(=O)c2c(nc(C(C3CC3)C3CC3)n2C)n(CCC)c1=O, the T/C (Rattus norvegicus [1]) is reported as 0.91, the Cr (Rattus norvegicus [2]) is reported as 4.49 mg/dL and the Na (Rattus norvegicus [3]) is reported as 0.271 m equiv 6hr-1 100g-1. The UN (Rattus norvegicus [4]) was 136.5 mg/dL, the Urine volume (Rattus norvegicus [5]) was 1.48 ml 6hr-1 100g-1 and the T/C (Rattus norvegicus [6]) was 0.97. For the same compound, the inhibition in vivo at 1 mg/kg (Rattus norvegicus [7]) was 44%, the T/C (Rattus norvegicus [8]) was 2.14 and the Urine volume (Rattus norvegicus [9]) was 0.96 ml 6hr-1 100g-1. It also gave a T/C (Rattus norvegicus [10]) of 1.48, a UN (Rattus norvegicus [11]) of 54.1 mg/dL and a Na (Rattus norvegicus [12]) of 0.174 m equiv 6hr-1 100g-1. For the same compound, the T/C (Rattus norvegicus [13]) was 1.78, the “Na+/K+” value (Rattus norvegicus [14]) was 1.21 and the Ki (Adenosine A2 receptor) was 29000 nM. It also gave a Cr (Rattus norvegicus [15]) of 1.63 mg/dL, an inhibition in vivo at 1 mg/kg (Rattus norvegicus [16]) of -15% and a T/C (Rattus norvegicus [17]) of 1.8. For the same compound, the “Na+/K+” value (Rattus norvegicus [18]) was 0.94, the inhibition in vivo at 1 mg/kg (Rattus norvegicus [19]) was 6% and the inhibition in vivo at 1 mg/kg (Rattus norvegicus [20]) was 50%.

For CC(C)Cn1c(=O)n(C)c(=O)c2[nH]c(C3CCCC3)nc21, the T/C (Rattus norvegicus [21]) was 1.35, the Na (Rattus norvegicus [22]) was 0.379 m equiv 6hr-1 100g-1 and the Cr (Rattus norvegicus [23]) was 3.08 mg/dL. The T/C (Rattus norvegicus [24]) was 2.12, the inhibition in vivo at 0.01 mg/kg (Rattus norvegicus [25]) was 25% and the UN (Rattus norvegicus [26]) was 106.4 mg/dL. For the same compound, the Urine volume (Rattus norvegicus [27]) was 1.31 ml 6hr-1 100g-1, the Urine volume (Rattus norvegicus [28]) was 1.59 ml 6hr-1 100g-1 and the UN (Rattus norvegicus [29]) was 107.3 mg/dL. The inhibition in vivo at 0.1 mg/kg (Rattus norvegicus [30]) was 45%, the “Na+/K+” value (Rattus norvegicus [31]) was 1.55 and the Cr (Rattus norvegicus [32]) was 2.54 mg/dL. The “Na+/K+” value (Rattus norvegicus [33]) was 1.22, the inhibition in vivo at 0.1 mg/kg (Rattus norvegicus [34]) was 35% and the UN (Rattus norvegicus [35]) was 109.5 mg/dL. It also gave an inhibition in vivo at 0.01 mg/kg (Rattus norvegicus [36]) of 26%, a Urine volume (Rattus norvegicus [37]) of 1.97 ml 6hr-1 100g-1 and a Ki (Adenosine receptor A1) of 33 nM. It also gave a T/C (Rattus norvegicus [10]) of 2.19, an inhibition in vivo at 1 mg/kg (Rattus norvegicus [38]) of 36% and a Cr (Rattus norvegicus [39]) of 2.79 mg/dL. The inhibition in vivo at 1 mg/kg (Rattus norvegicus [40]) was 40%, the “Na+/K+” value (Rattus norvegicus [14]) was 1.57 and the T/C (Rattus norvegicus [41]) was 1.14. For the same compound, the Ki (Adenosine A2 receptor) was 880 nM, the Na (Rattus norvegicus [42]) was 0.257 m equiv 6hr-1 100g-1 and the T/C (Rattus norvegicus [43]) was 1.72. The Na (Rattus norvegicus [44]) was 0.308 m equiv 6hr-1 100g-1 and the T/C (Rattus norvegicus [17]) was 2.12.
